Experiments:
Details in all cases: 48 h
[1] = system: NOMO1; assay: AUC of viability dose-response curve (% viability x log10 dose units); higher = less sensitive
Method in brief: (§1)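 Leukemia cells adapted to each medium (500 or 1000 cells/well, 1536-well plates) were exposed to library compounds in DMSO for 48 h at 37°C at 11 threefold doses, 47 μM to 0.79 nM. Luminescence by CellTiter-Glo One was normalised per plate to DMSO and cell-free wells, then fitted with a four-parameter log-logistic curve on log10 dose. Curves above full viability were scaled and quality-control failures removed before area under the curve was integrated by trapezoidal rule.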

[2] = system: P12-Ichikawa; assay: as above
Method in brief: as §1

[3] = system: SEM cells; assay: as above
Method in brief: as §1

[4] = system: SEM cells; assay: cell viability relative to DMSO control; higher = less cytotoxic
Method in brief: (§2)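 Three leukemia lines were tested: NOMO1 and SEM at 500 cells/well and P12-Ichikawa at 1000 cells/well. Each was adapted for at least four passages in each medium and seeded in 5 μl in 1536-well plates, and library compounds in DMSO were pin-dosed from 47 μM to 0.79 nM in 11 threefold steps. After 48 h at 37°C, CellTiter-Glo One luminescence was read. Viability is a percentage relative to DMSO wells on each plate, with cell-free wells as background.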

[5] = system: P12-Ichikawa; assay: as above
Method in brief: as §2

NC(=O)c1cccnc1
AUC of viability dose-response curve
Details	[1]	[2]	[3]
HPLM + 10% dialyzed FBS	438	451	448
RPMI 5 mM glucose + 10% FBS	464	466	449
RPMI 5 mM glucose + 10% dialyzed FBS	409	466	457

C[C@]\12CC[C@H](O)CC1=C/C[C@@H]3[C@@H]2CC[C@@]\4(C)[C@H]3C\C=C4C5=CN=CC=C5
AUC of viability dose-response curve
Details	[1]	[2]	[3]
HPLM + 10% dialyzed FBS	472	468	469
RPMI 5 mM glucose + 10% FBS	472	460	456
RPMI 5 mM glucose + 10% dialyzed FBS	454	459	469

C/C=C/C/C=C/CCC(=O)[C@H]1O[C@H]1C(N)=O
AUC of viability dose-response curve
Details	[1]	[2]	[3]
HPLM + 10% dialyzed FBS	457	470	466
RPMI 5 mM glucose + 10% FBS	458	473	464
RPMI 5 mM glucose + 10% dialyzed FBS	476	469	464

cell viability [%], [4]
Details	HPLM + 10% dialyzed FBS	RPMI 5 mM glucose + 10% FBS
0.000781 µM	105	106
0.00234 µM	107	117
0.00702 µM	118	132
0.0211 µM	123	110
0.0632 µM	117	121
0.19 µM	126	120
0.569 µM	109	132
1.71 µM	124	111
5.12 µM	113	128
15.4 µM	112	118
46.1 µM	71.5	55.3

CNC(=O)c1c(-c2ccc(F)cc2)oc2cc(N(CCO)[S+](C)(=O)[O-])c(C3CC3)cc12
AUC of viability dose-response curve
Details	HPLM + 10% dialyzed FBS	RPMI 5 mM glucose + 10% FBS	RPMI 5 mM glucose + 10% dialyzed FBS
[1]	395	412	425
[2]	382	407	404

cell viability [%], [4]
Details	HPLM + 10% dialyzed FBS	RPMI 5 mM glucose + 10% FBS	RPMI 5 mM glucose + 10% dialyzed FBS
0.000781 µM	82.4	44.5	75.4
0.00234 µM	117	71.1	111
0.00702 µM	117	77.3	118
0.0211 µM	110	69.1	106
0.0632 µM	71.9	41.9	65.2
0.19 µM	51.8	26.8	46.8
0.569 µM	67.2	39.9	59.4
1.71 µM	51.2	31.5	48
5.12 µM	25.4	23.8	24.4
15.4 µM	14.3	5.58	10.2
46.1 µM	3.38	1.22	1

CCN1\C=C(\C(O)=O)C(=O)C2=C1C=C(N3CCNCC3)C(=C2)F
AUC of viability dose-response curve
Details	[1]	[2]	[3]
HPLM + 10% dialyzed FBS	430	456	385
RPMI 5 mM glucose + 10% FBS	465	433	392
RPMI 5 mM glucose + 10% dialyzed FBS	455	449	404

cell viability [%], [4]
Details	HPLM + 10% dialyzed FBS	RPMI 5 mM glucose + 10% dialyzed FBS
0.000781 µM	95	117
0.00234 µM	130	124
0.00702 µM	125	125
0.0211 µM	136	129
0.0632 µM	116	108
0.19 µM	59.4	48.3
0.569 µM	112	114
1.71 µM	77.9	104
5.12 µM	90.6	98
15.4 µM	59.8	101
46.1 µM	78.8	77.8

ClC1=C[NH]N=C1C\2NC(=N\C3=C2C(=O)CCC3)/NC4=NC5=CC=CC=C5O4 (stereo unspecified)
AUC of viability dose-response curve
Details	[1]	[2]	[3]
HPLM + 10% dialyzed FBS	457	464	460
RPMI 5 mM glucose + 10% FBS	463	453	452
RPMI 5 mM glucose + 10% dialyzed FBS	465	455	441

OC[C@H]1O[C@@H](OCCc2ccc(O)cc2)[C@H](O)[C@@H](O)[C@@H]1O
AUC of viability dose-response curve
Details	[1]	[2]	[3]
HPLM + 10% dialyzed FBS	459	435	447
RPMI 5 mM glucose + 10% FBS	458	456	432
RPMI 5 mM glucose + 10% dialyzed FBS	464	461	419

COc1ccc(-c2ccc3c(N4CCOCC4)nc(N4C[C@@H](C)O[C@@H](C)C4)nc3n2)cc1CO
AUC of viability dose-response curve
Details	[1]	[2]	[3]
HPLM + 10% dialyzed FBS	304	336	343
RPMI 5 mM glucose + 10% FBS	372	301	342
RPMI 5 mM glucose + 10% dialyzed FBS	353	326	356

COc1ccc2cc([C@H](C)C(=O)O)ccc2c1
AUC of viability dose-response curve
Details	[1]	[2]	[3]
HPLM + 10% dialyzed FBS	465	448	412
RPMI 5 mM glucose + 10% FBS	476	469	401
RPMI 5 mM glucose + 10% dialyzed FBS	460	464	410

FC1=C(C=C(C\C2=N\NC(=O)C3=C2C=CC=C3)C=C1)C(=O)N4CCN(CC4)C(=O)C5CC5
AUC of viability dose-response curve
Details	HPLM + 10% dialyzed FBS	RPMI 5 mM glucose + 10% FBS	RPMI 5 mM glucose + 10% dialyzed FBS
[1]	439	400	422
[2]	421	390	393

cell viability [%]
Details	HPLM + 10% dialyzed FBS	RPMI 5 mM glucose + 10% FBS	RPMI 5 mM glucose + 10% dialyzed FBS
[4], 0.000781 µM	80.9	94.7	71.6
[4], 0.00234 µM	84	95.8	79
[4], 0.00702 µM	100	103	92
[4], 0.0211 µM	99	109	70.5
[4], 0.0632 µM	97	107	77.7
[4], 0.19 µM	94.9	105	81.3
[4], 0.569 µM	85.7	92.8	74.8
[4], 1.71 µM	91.6	87.1	78.2
[4], 5.12 µM	86.5	76.3	62.4
[4], 15.4 µM	19.7	13.1	17.5
[4], 46.1 µM	41.1	26.5	24.8
[5], 0.000781 µM	81.1	81.6	78.9
[5], 0.00234 µM	90.8	84.1	87.3
[5], 0.00702 µM	94	86.7	86.5
[5], 0.0211 µM	96.2	88.2	87.1
[5], 0.0632 µM	99	88.7	91.2
[5], 0.19 µM	87.4	86.5	93.2
[5], 0.569 µM	95.6	86.1	82
[5], 1.71 µM	85.7	82.5	82.1
[5], 5.12 µM	85.5	83.8	78.9
[5], 15.4 µM	88.3	72.1	73
[5], 46.1 µM	49.4	38.9	53.9

CC(C)(CO)[C@@H](O)C(=O)NCCC(=O)O
AUC of viability dose-response curve
Details	[1]	[2]	[3]
HPLM + 10% dialyzed FBS	440	466	469
RPMI 5 mM glucose + 10% FBS	470	471	471
RPMI 5 mM glucose + 10% dialyzed FBS	461	463	465

— the supplement of paper PMC11451515
